Reference: patent US7919488B2, “Therapeutic compounds” (Pfizer Inc., priority 2006, dated 2011)

Tests used:
Type in all cases: biochemical
[1] = target: T1, recombinant CYP3A4-b5 enzyme (Baculosomes®) (Homo sapiens, UniProt P08684); experiment: Kiapp against recombinant CYP3A4 enzyme (Baculosomes), BFC substrate; conditions: recombinant CYP3A4-b5 (Invitrogen), 5 uM BFC, 200 uM NADPH, pre-incubation at least 30 minutes, pH 7.0, room temperature
T1 construct: purchased Invitrogen (Carlsbad, Calif.)
T1 sequence (P08684 whole entry): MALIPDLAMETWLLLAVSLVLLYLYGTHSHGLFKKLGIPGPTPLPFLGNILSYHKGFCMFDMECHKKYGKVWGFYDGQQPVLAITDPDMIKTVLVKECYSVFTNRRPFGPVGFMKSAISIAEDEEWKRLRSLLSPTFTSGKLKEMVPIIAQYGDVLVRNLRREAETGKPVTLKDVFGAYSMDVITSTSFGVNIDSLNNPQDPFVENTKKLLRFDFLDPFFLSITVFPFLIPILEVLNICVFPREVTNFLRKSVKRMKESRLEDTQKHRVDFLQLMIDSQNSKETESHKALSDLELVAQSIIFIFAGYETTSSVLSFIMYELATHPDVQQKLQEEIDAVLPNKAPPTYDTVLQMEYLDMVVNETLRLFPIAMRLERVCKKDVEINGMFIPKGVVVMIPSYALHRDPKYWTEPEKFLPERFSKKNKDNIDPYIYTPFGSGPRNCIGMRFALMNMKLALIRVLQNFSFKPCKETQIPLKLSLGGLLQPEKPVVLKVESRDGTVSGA
Description: 1. Determination of Compound Kiapp
A determination of the Kiapp of the compounds of the invention against recombinant CYP3A4 enzyme was performed as follows. The assay was performed in a 100 mM sodium phosphate buffer pH 7.0, 5 mM TCEP and containing 2% dimethylformamide (final concentration) upon addition of substrate and inhibitor. A typical reaction for the determination of Kiapp values was carried at room temperature in a solid black Costar u-bottom 96-well polypropylene plate. […] When pre-incubation was completed (˜30 min), the reaction was initiated by adding NADPH (200 uM, final concentration), and 7-benzyloxy-4-(trifluoromethyl)-coumarin (BFC) (5 uM, final concentration). The oxidation of the coumarin substrate was recorded by a 96-well plate reader POLARstar (BMG LABTECH, Offenburg, Germany).
The initial reaction velocities were measured during the first 5 min of the reaction when the release of the fluorescent product is linear with time, in the absence and in the presence of various concentrations of inhibitors.
The fluorescent substrate BFC was purchased from Sigma (St Louis, Mo.). Two commercial sources of recombinant enzymes were used in this study: recombinant CYP3A4-b5 enzyme (Baculosomes®) was purchased from Invitrogen (Carlsbad, Calif.) and the recombinant CYP3A4+b5 enzyme (Supersomes®) was purchased from BD Biosciences (Woburn, Mass.).

[2] = target: T2, CYP3A4 (Homo sapiens, UniProt P08684); experiment: IC50 against CYP3A4 by inhibition of testosterone metabolism in human liver microsomes; conditions: 0.1 mg/mL human liver microsomes, 25 μM testosterone, 1 mM NADPH, 6-β-OH-testosterone production, eight minutes; read-out: IC50, μM (HLM, testosterone)
T2 construct: 0.1 mg/mL human liver microsomes; from tissue; host or cells: human liver microsomes
T2 sequence (P08684 whole entry): as above
Description: 2. Determination of IC50 Against CYP3A4 by Measurement of Inhibition of Testosterone Metabolism
This assay was performed using a standard 96 well plate design. […] Quantitation of metabolite peak area ratio against an internal standard is determined by LC-MS/MS analysis. The production of 6-β-OH-testosterone from testosterone metabolism is determined after incubation for eight minutes by comparison to a standard curve generated for the metabolite
(§1) Samples were analyzed in the MRM mode using a Sciex API 3000 mass spectrometer (Applied Biosystems, Foster City, Calif.) with a Paradigm MS4 binary pump (Michrom BioResources Inc., Auburn, Calif.) and a LEAP CTC PAL autosampler (LEAP Technologies, Carrboro, N.C.). A Phenomenex Synergi, 4μ, Polar-RP, 10×2.0 mm column (Phenomenex, Torrance, Calif.) was used for separation with a mobile phase composition of: 0.1% formic acid in water (A) and: 0.1% formic acid in methanol (B). The following gradient was used: […]
(§2) The sample injection volume was 10 μL and flow was split post-column with 0.4 mL/min going to the mass spectrometer. Analysis was performed using the following API 3000 mass spectrometer settings: […]

[3] = target: T2, CYP3A4; experiment: IC50 against CYP3A4 by inhibition of midazolam metabolism in human liver microsomes; conditions: 0.1 mg/mL human liver microsomes, 2 μM midazolam, 1 mM NADPH, 1-hydroxymidazolam production, eight minutes; read-out: IC50, μM (HLM, midazolam)
Description: 3. Determination of IC50 Against CYP3A4 by Measurement of Inhibition of Midazolam Metabolism
This assay was performed using a standard 96 well plate design. […] The incubation substrate mix contains 2 μM midazolam, 0.1 mg/mL human liver microsomes, 1 mM NADPH, and potassium phosphate buffer (100 mM, pH 7.4). Quantitation of metabolite peak area ratio against internal standard is determined by LC-MS/MS analysis. The production of 1-hydroxymidazolam from midazolam metabolism is determined after incubation for eight minutes by comparison to a standard curve generated for the metabolite.
as §1, §2

COC(=O)Cn1nc(-c2ccncc2)cc1Cc1ccc(F)cc1 [Example 2, methyl [5-(4-fluorobenzyl)-3-pyridin-4-yl-1H-pyrazol-1-yl]acetate]
Ki [1]: 0.13 µM
IC50 [2]: 0.956 µM

O=C(Cn1nc(-c2ccncc2)cc1Cc1ccc(F)cc1)N1CCC(N2CCCC2=O)CC1 [Example 5, 1(1-{[5-(4-fluorobenzyl)-3-pyridin-4-yl-1H-pyrazol-1-yl]acetyl}piperidin-4-yl)pyrrolidin-2-one]
Ki [1]: 0.085 µM
IC50 [3]: 0.01 µM
IC50 [2]: 0.033 µM

NC1CCN(C(=O)Cn2nc(-c3ccncc3)cc2Cc2ccc(F)cc2)CC1 [Example 8, 1-{[5-(4-fluorobenzyl)-3-pyridin-4-yl-1H-pyrazol-1-yl]acetyl}piperidin-4-amine]
Ki [1]: 0.547 µM
IC50 [3]: 0.114 µM
IC50 [2]: 0.273 µM

CC(C)NC1CCN(C(=O)Cn2nc(-c3ccncc3)cc2Cc2ccc(F)cc2)CC1 [Example 9, 1-{[5-(4-fluorobenzyl)-3-pyridin-4-yl-1H-pyrazol-1-yl]acetyl}-N-isopropylpiperidin-4-amine]
Ki [1]: 0.202 µM
IC50 [2]: 0.056 µM

CCC(=O)N(C)C1CCN(C(=O)Cn2nc(-c3ccncc3)cc2Cc2ccc(F)cc2)CC1 [Example 10, N-(1-{[5-(4-fluorobenzyl)-3-pyridin-4-yl-1H-pyrazol-1-yl]acetyl}piperidin-4-yl)-N-methylpropanamide]
Ki [1]: 0.0297 µM
IC50 [3]: 0.013 µM
IC50 [2]: 0.033 µM

CC(C)C(=O)N(C)C1CCN(C(=O)Cn2nc(-c3ccncc3)cc2Cc2ccc(F)cc2)CC1 [Example 11, N-(1-{[5-(4-fluorobenzyl)-3-pyridin-4-yl-1H-pyrazol-1-yl]acetyl}piperidin-4-yl)-N,2-dimethylpropanamide]
Ki [1]: 0.00841 µM
IC50 [3]: < 0.003 µM
IC50 [2]: 0.012 µM

CN(C(=O)C1CCC1)C1CCN(C(=O)Cn2nc(-c3ccncc3)cc2Cc2ccc(F)cc2)CC1 [Example 12, N-(1-{[5-(4-fluorobenzyl)-3-pyridin-4-yl-1H-pyrazol-1-yl]acetyl}piperidin-4-yl)-N-methylcyclobutanecarboxamide]
Ki [1]: 0.00701 µM
IC50 [3]: < 0.003 µM
IC50 [2]: 0.009 µM

CN(C(=O)C1CC1)C1CCN(C(=O)Cn2nc(-c3ccncc3)cc2Cc2ccc(F)cc2)CC1 [Example 13, N-(1-{[5-(4-fluorobenzyl)-3-pyridin-4-yl-1H-pyrazol-1-yl]acetyl}piperidin-4-yl)-N-methylcyclopropanecarboxamide]
Ki [1]: 0.0111 µM
IC50 [3]: < 0.00346 µM
IC50 [2]: 0.009 µM

CN(C1CCN(C(=O)Cn2nc(-c3ccncc3)cc2Cc2ccc(F)cc2)CC1)S(C)(=O)=O [Example 14, N-(1-{[5-(4-fluorobenzyl)-3-pyridin-4-yl-1H-pyrazol-1-yl]acetyl}piperidin-4-yl)-N-methylmethanesulfonamide]
Ki [1]: 0.0236 µM
IC50 [3]: 0.013 µM
IC50 [2]: 0.015 µM

COC(=O)N(C)C1CCN(C(=O)Cn2nc(-c3ccncc3)cc2Cc2ccc(F)cc2)CC1 [Example 15, Methyl (1-{[5-(4-fluorobenzyl)-3-pyridin-4-yl-1H-pyrazol-1-yl]acetyl}piperidin-4-yl)methylcarbamate]
Ki [1]: 0.0222 µM
IC50 [3]: 0.009 µM
IC50 [2]: 0.013 µM

O=C(NC1CCN(C(=O)Cn2nc(-c3ccncc3)cc2Cc2ccc(F)cc2)CC1)C1CCC1 [Example 18, N-(1-{2-[5-(4-fluorobenzyl)-3-pyridin-4-yl-1H-pyrazol-1-yl]acetyl}piperidin-4-yl)cyclobutanecarboxamide]
Ki [1]: 0.0706 µM
IC50 [2]: 0.018 µM

Fc1ccc(Cc2cc(-c3ccncc3)nn2C2CN(C(c3ccccc3)c3ccccc3)C2)cc1 [Example 20, 4-[1-[1-(diphenylmethyl)azetidin-3-yl]-5-(4-fluorobenzyl)-1H-pyrazol-3-yl]pyridine]
Ki [1]: 0.0365 µM
IC50 [3]: 0.228 µM
IC50 [2]: 0.251 µM

CCC(=O)N1CC(n2nc(-c3ccncc3)cc2Cc2ccc(F)cc2)C1 [Example 22, 1-(3-(5-(4-fluorobenzyl)-3-(pyridin-4-yl)-1H-pyrazol-1-yl)azetidin-1-yl)propan-1-one]
Ki [1]: 0.166 µM
IC50 [3]: 0.084 µM
IC50 [2]: 0.072 µM

CS(=O)(=O)N1CC(n2nc(-c3ccncc3)cc2Cc2ccc(F)cc2)C1 [Example 23, 4-{5-(4-fluorobenzyl)-1-[1-(methylsulfonyl)azetidin-3-yl]-1H-pyrazol-3-yl}pyridine]
Ki [1]: 0.159 µM
IC50 [3]: 0.375 µM
IC50 [2]: 0.218 µM

O=C(c1ncc[nH]1)N1CC(n2nc(-c3ccncc3)cc2Cc2ccc(F)cc2)C1 [Example 24, 4-{5-(4-fluorobenzyl)-1-[1-(1H-imidazol-2-ylcarbonyl)azetidin-3-yl]-1H-pyrazol-3-yl}pyridine]
Ki [1]: 0.0772 µM
IC50 [3]: 0.027 µM
IC50 [2]: 0.047 µM

OCCn1nc(-c2ccncc2)cc1Cc1ccc(F)cc1 [Example 29, 2-[5-(4-fluorobenzyl)-3-pyridin-4-yl-1H-pyrazol-1-yl]ethanol]
Ki [1]: 0.159 µM
IC50 [2]: 0.054 µM

O=C(Cn1nc(-c2ccncc2)cc1Cc1ccc(F)cc1)NCCc1cnccn1 [Example 78, 2-[5-(4-fluorobenzyl)-3-pyridin-4-yl-1H-pyrazol-1-yl]-N-(2-pyrazin-2-ylethyl)acetamide]
Ki [1]: 0.0834 µM
IC50 [2]: 0.04 µM

C[C@H](CO)NC(=O)Cn1nc(-c2ccncc2)cc1Cc1ccc(F)cc1 [Example 94, 2-[5-(4-fluorobenzyl)-3-pyridin-4-yl-1H-pyrazol-1-yl]-N-[(1R)-2-hydroxy-1-methylethyl]acetamide]
Ki [1]: 0.112 µM
IC50 [2]: 0.022 µM

CC(C)C(=O)NC1CCN(C(=O)Cn2nc(-c3ccncc3)cc2Cc2ccc(F)cc2)CC1 [Example 104, N-(1-{[5-(4-fluorobenzyl)-3-pyridin-4-yl-1H-pyrazol-1-yl]acetyl}piperidin-4-yl)-2-methylpropanamide]
Ki [1]: 0.106 µM
IC50 [2]: 0.046 µM

COC(=O)NC1CCN(C(=O)Cn2nc(-c3ccncc3)cc2Cc2ccc(F)cc2)CC1 [Example 105, methyl (1-{[5-(4-fluorobenzyl)-3-pyridin-4-yl-1H-pyrazol-1-yl]acetyl}piperidin-4-yl)carbamate]
Ki [1]: 0.055 µM
IC50 [2]: 0.036 µM

CCNC(=O)NC1CCN(C(=O)Cn2nc(-c3ccncc3)cc2Cc2ccc(F)cc2)CC1 [Example 106, 1-ethyl-3-(1-{[5-(4-fluorobenzyl)-3-pyridin-4-yl-1H-pyrazol-1-yl]acetyl}piperidin-4-yl)urea]
Ki [1]: 0.0782 µM
IC50 [2]: 0.023 µM

CNC(=O)NC1CCN(C(=O)Cn2nc(-c3ccncc3)cc2Cc2ccc(F)cc2)CC1 [Example 107, 1-(1-{[5-(4-fluorobenzyl)-3-pyridin-4-yl-1H-pyrazol-1-yl]acetyl}piperidin-4-yl)-3-methylurea]
Ki [1]: 0.165 µM
IC50 [2]: 0.029 µM

O=C(Cn1nc(-c2c[nH]cn2)cc1Cc1ccc(F)cc1)N1CCN(c2ncccn2)CC1 [Example 108, 2-(4-{[5-(4-fluorobenzyl)-3-(1H-imidazol-4-yl)-1H-pyrazol-1-yl]acetyl}piperazin-1-yl)pyrimidine]
Ki [1]: 0.0881 µM
IC50 [2]: 0.241 µM

CC(=O)N(C)C1CCN(C(=O)Cn2nc(-c3ccncc3)cc2Cc2ccc(F)cc2)CC1 [Example 109, N-(1-{[5-(4-fluorobenzyl)-3-pyridin-4-yl-1H-pyrazol-1-yl]acetyl}piperidin-4-yl)-N-methylacetamide]
Ki [1]: 0.0643 µM
IC50 [2]: 0.036 µM

CCS(=O)(=O)N(C)C1CCN(C(=O)Cn2nc(-c3ccncc3)cc2Cc2ccc(F)cc2)CC1 [Example 110, N-(1-{[5-(4-fluorobenzyl)-3-pyridin-4-yl-1H-pyrazol-1-yl]acetyl}piperidin-4-yl)-N-methylethane-sulfonamide]
Ki [1]: 0.0158 µM
IC50 [2]: 0.016 µM
